Converted amounts (≈) assume the structure as drawn.
Key:
[1] = system: A549 human lung cancer cells; experiment: cell viability assay (MTT); type: cell-based; conditions: 24 h; for viability at 1 µg/mL: read-out: Validity (%) for sample concentrations (µg/mL) 1; for viability at 10 µg/mL: read-out: Validity (%) for sample concentrations (µg/mL) 10; for viability at 31.25 µg/mL: read-out: Validity (%) for sample concentrations (µg/mL) 31.25; for viability at 62.5 µg/mL: 62.50 µg/mL, read-out: Validity (%) for sample concentrations (µg/mL) 62.50; for viability at 125 µg/mL: read-out: Validity (%) for sample concentrations (µg/mL) 125; for viability at 250 µg/mL: read-out: Validity (%) for sample concentrations (µg/mL) 250; for viability at 500 µg/mL: read-out: Validity (%) for sample concentrations (µg/mL) 500; for viability at 1000 µg/mL: read-out: Validity (%) for sample concentrations (µg/mL) 1000
S. aureus = experiment: MIC by broth microdilution method (resazurin end point); type: cell-based; conditions: Staphylococcus aureus; S. aureus; 24 h at 37 °C; read-out: MIC
Protocol: (§1) Determination of Minimum inhibitory concentrations (MIC) of flourene derivatives was done using broth microdilution method. The procedure involved preparation of twofold dilutions of the fluorene derivatives ranging from (500–7.8 μg/mL) in sterile Mueller–Hinton broth inside the wells of 96-well microplate (Sarstedt, Germany). The inoculums of test strains prepared from fresh overnight cultures were adjusted to 0.5 McFarland standards, which equals to 1–2 × 10^8 CFU/mL for bacteria, the procedure was done according to CLSI 2012 [42]. […] For this assay the positive control agents were vancomycin (range: 0.7–50 μg/mL), gentamicin (range: 0.15–10 μg/mL) and the negative control was 1% DMSO.
(§2) For proper determination of the MIC end point resazurin dye has been used. A stock solution of resazurin sodium salt powder (Titan Biotech) was prepared at 0.02% (wt/vol) in distilled water, sterilized by filtration through a […] filter into a sterile light protected container then stored protected from light at 4 °C for up to 1 week, or at − […] for long term use, then 10–15% resazurin solution of the total volume in wells was added to each well and incubation for 1–4 h at 37 °C was done. A change in color from blue to pink indicates the growth of bacteria, and MIC was defined as the lowest concentration of the drug that prevented this change in color.

[2] = system: MDA-MB-231 human breast cancer cells; experiment: cell viability assay (MTT); type: cell-based; conditions: 24 h; for viability at 1 µg/mL: read-out: Validity (%) for sample concentrations (µg/mL) 1; for viability at 10 µg/mL: read-out: Validity (%) for sample concentrations (µg/mL) 10; for viability at 31.25 µg/mL: read-out: Validity (%) for sample concentrations (µg/mL) 31.25; for viability at 62.5 µg/mL: read-out: Validity (%) for sample concentrations (µg/mL) 62.5; for viability at 125 µg/mL: read-out: Validity (%) for sample concentrations (µg/mL) 125; for viability at 250 µg/mL: read-out: Validity (%) for sample concentrations (µg/mL) 250; for viability at 500 µg/mL: read-out: Validity (%) for sample concentrations (µg/mL) 500
How it was run: (§3)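 Cells were grown in RPMI-1640 with 10% heat-inactivated FBS, seeded at 5000 cells/well, and next day exposed to fluorene derivatives at 0, 1, 10, 31.25, 62.5, 125, 250 or 500 µg/mL for 24 h. Viability was then measured by MTT, absorbance at 570 nm.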

[3] = system: WI-38 human normal fibroblast cells; experiment: cell viability assay (MTT); type: cell-based; conditions: 24 h; for viability at 31.25 µg/mL: read-out: Validity (%) for sample concentrations (µg/mL) 31.25; for viability at 62.5 µg/mL: 62.50 µg/mL, read-out: Validity (%) for sample concentrations (µg/mL) 62.50; for viability at 125 µg/mL: read-out: Validity (%) for sample concentrations (µg/mL) 125; for viability at 250 µg/mL: read-out: Validity (%) for sample concentrations (µg/mL) 250; for viability at 500 µg/mL: read-out: Validity (%) for sample concentrations (µg/mL) 500
How it was run: as §3

[4] = system: Staphylococcus aureus (S. aureus), multidrug resistant clinical isolate; experiment: agar well diffusion assay; type: cell-based; conditions: Staphylococcus aureus; S. aureus; 500 µg/mL of tested compound; 24 h
How it was run: (§4)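 Multidrug-resistant clinical isolates swabbed on Mueller–Hinton agar at about 1–5 × 10^5 CFU/mL; 0.5 cm wells received 50 μL compound at 500 μg/mL in 1% DMSO. Incubation 24 h, 37 °C for bacteria and C. albicans, 25 °C for Aspergillus; inhibition zone diameter measured in mm.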

P. aeruginosa = experiment: MIC by broth microdilution method (resazurin end point); type: cell-based; conditions: Pseudomonas aeruginosa, 24 h at 37 °C
Protocol: as §1, §2

E. coli = experiment: as above; type: cell-based; conditions: Escherichia coli, 24 h at 37 °C
Protocol: as §1, §2

[5] = system: Escherichia coli (E. coli), multidrug resistant clinical isolate; experiment: agar well diffusion assay; type: cell-based; conditions: 24 h, 500 µg/mL of tested compound
How it was run: as §4

[6] = system: Pseudomonas aeruginosa (P. aeruginosa), multidrug resistant clinical isolate; experiment: agar well diffusion assay; type: cell-based; conditions: 24 h, 500 µg/mL of tested compound
How it was run: as §4

[7] = system: Klebsiella pneumoniae (K. pneumoniae), multidrug resistant clinical isolate; experiment: agar well diffusion assay; type: cell-based; conditions: 24 h, 500 µg/mL of tested compound
How it was run: as §4

[8] = system: methicillin-resistant Staphylococcus aureus (MRSA); experiment: agar well diffusion assay; type: cell-based; conditions: Staphylococcus aureus, 500 µg/mL of tested compound, 24 h
How it was run: as §4

Compound | viability at 1 µg/mL [1] [%] | viability at 10 µg/mL [1] [%] | viability at 31.25 µg/mL [1] [%] | viability at 62.5 µg/mL [1] [%] | viability at 125 µg/mL [1] [%] | viability at 250 µg/mL [1] [%] | viability at 500 µg/mL [1] [%] | viability at 1000 µg/mL [1] [%] | IC50 [1] [µg/mL] | viability at 1 µg/mL [2] [%] | viability at 10 µg/mL [2] [%] | viability at 31.25 µg/mL [2] [%] | viability at 62.5 µg/mL [2] [%] | viability at 125 µg/mL [2] [%] | viability at 250 µg/mL [2] [%] | viability at 500 µg/mL [2] [%] | IC50 [2] [µg/mL] | viability at 31.25 µg/mL [3] [%] | viability at 62.5 µg/mL [3] [%] | viability at 125 µg/mL [3] [%] | further results
COc1cc(C2SCC(=O)N2c2nc(-c3cc(Cl)cc4c3-c3ccc(Cl)cc3C4)cs2)ccc1O (stereo not drawn) [5h, 3-(4-(2,7-Dichloro-9H-fluoren-4-yl)thiazol-2-yl)-2-(4-hydroxy-3-methoxyphenyl)thiazolidin-4-one] | 92.9 | 91.4 | 90.3 | 88.7 | 85.7 | 82.7 | 77.2 | 68 | 1610 (≈ 2970 µM) | 90.9 | 82.8 | 79.3 | 76.8 | 71.7 | 61.7 | 56.7 | > 500 | 95 | 81.7 | 78.7 | MIC (S. aureus): 62.5 µg/mL (≈ 115 µM); viability at 250 µg/mL [3]: 72.8%; viability at 500 µg/mL [3]: 66.2%; IC50 [3]: > 500 µg/mL; melting point: 85 to 87 °C; zone of inhibition at 500 µg/mL [4]: 11 mm
O=C1CSC(c2ccco2)N1c1nc(-c2cc(Cl)cc3c2-c2ccc(Cl)cc2C3)cs1 (stereo not drawn) [5j, 3-(4-(2,7-Dichloro-9H-fluoren-4-yl)thiazol-2-yl)-2-(furan-2-yl)thiazolidin-4-one] | 92.9 | 84.6 | 83.6 | 82.5 | 81.6 | 77.5 | 71.4 | 52.5 | 1050 (≈ 2150 µM) | 94.4 | 74.8 | 67 | 61.4 | 60.2 | 57.2 | 49.3 | 435 (≈ 896 µM) | 84.2 | 66.1 | 61.5 | MIC (P. aeruginosa): 62.5 µg/mL (≈ 129 µM); MIC (E. coli): 62.5 µg/mL (≈ 129 µM); viability at 250 µg/mL [3]: 39.1%; viability at 500 µg/mL [3]: 38.5%; IC50 [3]: 196 µg/mL (≈ 404 µM); melting point: 139 to 141 °C; zone of inhibition at 500 µg/mL [5]: 10 mm; zone of inhibition at 500 µg/mL [4]: 6 mm; zone of inhibition at 500 µg/mL [6]: 8 mm
O=C1C(Cl)C(c2ccncc2)N1c1nc(-c2cc(Cl)cc3c2-c2ccc(Cl)cc2C3)cs1 (stereo not drawn) [6m, 3-Chloro-1-(4-(2,7-dichloro-9H-fluoren-4-yl)thiazol-2-yl)-4-(pyridin-4-yl)azetidin-2-one] | 91.5 | 81.8 | 67.6 | 65.9 | 62.7 | 58.7 | 54.1 | 49.8 | 830 (≈ 1660 µM) | 93.2 | 89.9 | 77.6 | 73.2 | 67.1 | 63.4 | 59.5 | > 500 | 78.5 | 72.8 | 68.5 | MIC (E. coli): 15.6 µg/mL (≈ 31.3 µM); viability at 250 µg/mL [3]: 63%; viability at 500 µg/mL [3]: 55.7%; IC50 [3]: > 500 µg/mL; melting point: 249 to 250 °C; zone of inhibition at 500 µg/mL [7]: 3 mm; zone of inhibition at 500 µg/mL [5]: 27 mm; zone of inhibition at 500 µg/mL [4]: 4 mm; zone of inhibition at 500 µg/mL [8]: 6 mm

— publication PMC7315563, “Bioactive fluorenes. Part III: 2,7-dichloro-9H-fluorene-based thiazolidinone and azetidinone analogues as anticancer and antimicrobial against multidrug resistant strains agents” (BMC Chemistry, 2020)
